Biological target: T1, human GST-PIKFYVE (Homo sapiens, UniProt Q9Y2I7)
T1 construct: GST; purchased Carna biosciences 11-118
Assay: ADP-Glo kinase assay, enzyme inhibition activity against human PIKFYVE (Carna biosciences)
Type: biochemical
Conditions: inhibitory activity at final compound concentration 10 nM; 1 hour at room temperature
Method: The enzyme inhibition activity values for the compounds according to Examples against human PIKFYVE were calculated using the ADP-Glo™ kinase assay service of Carna biosciences, Inc. The enzyme activity evaluation method provided by Carna biosciences Inc., is shown below.
Enzyme inhibition activity was evaluated by reacting the compounds according to Examples with human GST-PIKFYVE (11-118, Carna biosciences), which was purified using glutathione Sepharose chromatography. The reaction buffer used was composed of 50 mmol/L MOPS, 1 mmol/L DTT, and pH 7.2, and all reactions of the test distilled water were performed in the buffer.
Compounds were prepared as solutions in 100% DMSO as 100× stocks and adjusted to have a final sample concentration of 10 nM.
The substrate-enzyme reaction for PIKFYVE was performed by mixing 5 μL human GST-PIKFYVE, 5 μL compounds according to Examples, 5 μL enzyme substrate, and 5 μL purified ATP and reacting for 1 hour at room temperature. After the substrate-enzyme reaction, 20 μL ADP-Glo™ Reagent was added and reacted at room temperature for 40 minutes, then 40 μL Kinase Detection Reagent was added and reacted at room temperature for 40 minutes.
After completion of the reaction, the degree of enzyme activity inhibition was measured by luminescence. The fluorescence of the enzyme activity in the solvent control group […] was set to 100%, and the fluorescence of the enzyme activity in the solvent control group without compound treatment was set to 0%. The inhibitory activity of each compound according to Examples was calculated based on these values.

T1 sequence (Q9Y2I7 whole entry): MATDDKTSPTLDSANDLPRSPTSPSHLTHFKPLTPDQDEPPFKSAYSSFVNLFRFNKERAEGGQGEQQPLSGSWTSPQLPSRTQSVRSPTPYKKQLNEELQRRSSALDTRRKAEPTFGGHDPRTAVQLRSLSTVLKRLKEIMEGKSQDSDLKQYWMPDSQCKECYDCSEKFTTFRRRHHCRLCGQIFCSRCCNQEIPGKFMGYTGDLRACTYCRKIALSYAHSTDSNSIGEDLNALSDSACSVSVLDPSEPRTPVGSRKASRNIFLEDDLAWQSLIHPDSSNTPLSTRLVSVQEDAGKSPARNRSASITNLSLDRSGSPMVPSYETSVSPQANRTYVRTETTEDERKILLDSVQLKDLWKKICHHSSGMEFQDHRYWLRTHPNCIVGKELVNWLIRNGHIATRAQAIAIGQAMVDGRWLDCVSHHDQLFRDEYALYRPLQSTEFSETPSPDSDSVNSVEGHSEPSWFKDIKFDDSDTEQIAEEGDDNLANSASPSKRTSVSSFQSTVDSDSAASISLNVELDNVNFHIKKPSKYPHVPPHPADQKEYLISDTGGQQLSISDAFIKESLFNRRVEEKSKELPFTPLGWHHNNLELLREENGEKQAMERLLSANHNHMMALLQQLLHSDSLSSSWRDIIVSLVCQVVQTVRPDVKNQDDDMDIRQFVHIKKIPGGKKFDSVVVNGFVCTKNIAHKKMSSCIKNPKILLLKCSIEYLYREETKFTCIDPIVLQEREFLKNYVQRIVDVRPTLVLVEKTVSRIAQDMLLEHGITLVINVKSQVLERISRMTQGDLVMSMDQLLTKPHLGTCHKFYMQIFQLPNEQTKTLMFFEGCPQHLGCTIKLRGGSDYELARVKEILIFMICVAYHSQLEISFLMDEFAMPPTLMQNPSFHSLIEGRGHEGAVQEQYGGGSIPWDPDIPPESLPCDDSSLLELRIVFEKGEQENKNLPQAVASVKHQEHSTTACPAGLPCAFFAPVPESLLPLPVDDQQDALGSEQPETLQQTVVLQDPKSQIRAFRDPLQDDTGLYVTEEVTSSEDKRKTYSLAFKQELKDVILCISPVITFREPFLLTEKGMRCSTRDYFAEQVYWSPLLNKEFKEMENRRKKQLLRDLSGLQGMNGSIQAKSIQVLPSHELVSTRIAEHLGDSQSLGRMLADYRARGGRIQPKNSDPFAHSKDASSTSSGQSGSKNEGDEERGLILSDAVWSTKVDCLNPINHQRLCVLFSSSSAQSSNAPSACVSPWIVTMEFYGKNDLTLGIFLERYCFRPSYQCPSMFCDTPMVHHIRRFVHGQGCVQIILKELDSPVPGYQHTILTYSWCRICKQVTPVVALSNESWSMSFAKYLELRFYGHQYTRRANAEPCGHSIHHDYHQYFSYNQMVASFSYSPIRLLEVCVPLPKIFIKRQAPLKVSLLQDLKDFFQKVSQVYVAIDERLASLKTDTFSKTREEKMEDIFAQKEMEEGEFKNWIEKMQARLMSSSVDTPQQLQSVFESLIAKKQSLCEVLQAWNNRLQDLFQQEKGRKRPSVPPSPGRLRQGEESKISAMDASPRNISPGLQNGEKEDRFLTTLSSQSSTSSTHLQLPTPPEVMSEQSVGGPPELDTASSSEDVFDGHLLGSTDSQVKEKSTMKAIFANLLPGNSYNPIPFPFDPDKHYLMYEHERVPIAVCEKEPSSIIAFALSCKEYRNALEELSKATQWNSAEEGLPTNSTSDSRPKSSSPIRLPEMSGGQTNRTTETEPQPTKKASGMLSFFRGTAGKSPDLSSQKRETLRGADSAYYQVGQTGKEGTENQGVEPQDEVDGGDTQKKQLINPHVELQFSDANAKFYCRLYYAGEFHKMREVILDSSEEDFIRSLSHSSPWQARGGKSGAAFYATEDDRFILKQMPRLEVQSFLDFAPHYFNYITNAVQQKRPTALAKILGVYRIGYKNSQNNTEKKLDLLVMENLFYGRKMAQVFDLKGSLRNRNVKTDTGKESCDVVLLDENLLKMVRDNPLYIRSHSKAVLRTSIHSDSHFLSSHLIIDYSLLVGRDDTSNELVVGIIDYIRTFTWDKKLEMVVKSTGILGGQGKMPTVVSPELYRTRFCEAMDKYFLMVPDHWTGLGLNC

| ADP-Glo kinase assay (%, 10 nM) | Structure (SMILES) |
| --- | --- |
| 68.47% | Cc1ccccc1/C=N/n1cnc2c(Nc3ccncc3)nc(N3CCOCC3)nc21 [Example 167, (E)-9-((2-methylbenzylidene)amino)-2-morpholino-N-(pyridin-4-yl)-9H-purin-6-amine] |
| 90.96% | COc1cccc(/C=N/n2cnc3c(Nc4ccncc4)nc(N4CCOCC4)nc32)c1 [Example 172, (E)-9-((3-methoxybenzylidene)amino)-2-morpholino-N-(pyridin-4-yl)-9H-purin-6-amine] |
| 66.19% | Cc1cccc(/C=N/Nc2nc(N3CCOCC3)nc3c2ncn3CC(=O)c2ccc(N3CCOCC3)cc2N2CCOCC2)c1 [Example 51, (E)-1-(2,4-dimorpholinophenyl)-2-(6-(2-(3-methylbenzylidene)hydrazinyl)-2-morpholino-9H-purin-9-yl)ethan-1-one] |
| 53.74% | COc1ccc(Nc2nc(N3CCOCC3)nc3c2nc(C)n3/N=C/c2cccc(C)c2)cc1 [Example 205, (E)-N-(4-methoxyphenyl)-8-methyl-9-((3-methylbenzylidene)amino)-2-morpholino-9H-purin-6-amine] |
| 58.10% | Cc1cccc(/C=N/Nc2nc(N3CCOCC3)nc3c2ncn3CC(=O)c2cnccn2)c1 [Example 54, (E)-2-(6-(2-(3-methylbenzylidene)hydrazinyl)-2-morpholino-9H-purin-9-yl)-1-(pyrazin-2-yl)ethan-1-one] |
| 75.57% | Cc1cccc(/C=N/n2c(C)nc3c(Nc4ccncc4)nc(N4CCOCC4)nc32)c1 [Example 207, (E)-8-methyl-9-((3-methylbenzylidene)amino)-2-morpholino-N-(pyridin-4-yl)-9H-purin-6-amine] |
| 91.62% | Cc1cccc(/C=N/Nc2nc(N3C[C@H]4C[C@@H]3CO4)nc3c2ncn3-c2cccnc2)c1 [Example 98, (1R,4R)-5-(6-(2-(3-methylbenzylidene)hydrazinyl)-9-(pyridin-3-yl)-9H-purin-2-yl)-oxa-5-azabicyclo[2.2.1]heptane] |
| 52.07% | COc1ccccc1Nc1nc(N2CCOCC2)nc2c1ncn2/N=C/c1cccc(C)c1 [Example 187, (E)-N-(2-methoxyphenyl)-9-((3-methylbenzylidene)amino)-2-morpholino-9H-purin-6-amine] |
| 53.92% | Cc1ccc(Nc2nc(N3CCOCC3)nc3c2ncn3/N=C/c2cccc(C)c2)cc1 [Example 181, (E)-9-((3-methylbenzylidene)amino)-2-morpholino-N-(p-tolyl)-9H-purin-6-amine] |
| 71.38% | Cc1cccc(/C=N/n2c(C)nc3c(OCCc4ccccn4)nc(N4CCOCC4)nc32)c1 [Example 208, (E)-N-8-methyl-2-morpholino-(6-(2-pyridin-2-yl)ethoxy)-9H-purin-9-yl-1-(m-tolyl)methanimine] |
| 64.23% | Cc1cccc(-c2ccn(-c3nc(N4CCOCC4)nc4c3ncn4-c3cccc(OC4CC4)c3)n2)c1 [Example 138, 4-(9-(3-cyclopropoxyphenyl)-6-(3-(m-tolyl)-1H-pyrazol-1-yl)-9H-purin-2-yl)morpholine] |
| 59.84% | COc1ccc(-n2cnc3c(-n4ccc(-c5cccc(C)c5)n4)nc(N4CCOCC4)nc32)cc1 [Example 134, 4-(9-(4-methoxyphenyl)-6-(3-(m-tolyl)-1H-pyrazol-1-yl)-9H-purin-2-yl)morpholine] |
| 55.15% | Cc1cccc(/C=N/Nc2nc(N3CCOCC3)nc3c2ncn3CC(=O)N2CCc3ccccc32)c1 [Example 29, (E)-1-(indolin-1-yl)-2-(6-(2-(3-methylbenzylidene)hydrazinyl)-2-morpholino-9H-purin-9-yl)ethan-1-one] |
| 78.59% | Cc1cccc(Nc2nc(N3CCOCC3)nc3c2ncn3/N=C/c2cccnc2)c1 [Example 190, (E)-2-morpholino-9-((pyridin-3-ylmethylene)amino)-N-(m-tolyl)-9H-purin-6-amine] |
| 77.75% | COc1cccc(-n2c(C)nc3c(N/N=C/c4cccc(C)c4)nc(N4CCOCC4)nc32)c1 [Example 160, (E)-4-(9-(3-methoxyphenyl)-8-methyl-6-(2-(3-methylbenzylidene)hydrazinyl)-9H-purin-2-yl)morpholine] |
| 51.18% | Cc1cccc(-c2ccn(-c3nc(N4CCOCC4)nc4c3ncn4-c3cccc(Cl)c3)n2)c1 [Example 135, 4-(9-(3-chlorophenyl)-6-(3-(m-tolyl)-1H-pyrazol-1-yl)-9H-purin-2-yl)morpholine] |

| ADP-Glo kinase assay (%, 10 nM) | Structure (SMILES) |
| --- | --- |
| 68.43% | Cc1cccc(/C=N/Nc2nc(N3CCOCC3)nc3c2ncn3-c2ncccc2C)c1 [Example 142, (E)-4-(6-(2-(3-methylbenzylidene)hydrazinyl)-9-(3-methylpyridin-2-yl)-9H-purin-2-yl)morpholine] |
| 86.73% | Clc1cccc(/C=N/n2cnc3c(Nc4ccncc4)nc(N4CCOCC4)nc32)c1 [Example 171, (E)-9-((3-chlorobenzylidene)amino)-2-morpholino-N-(pyridin-4-yl)-9H-purin-6-amine] |
| 61.25% | Cc1cccc(/C=N/n2cnc3c(Nc4cncc(C)c4)nc(N4CCOCC4)nc32)c1 [Example 192, (E)-9-((3-methylbenzylidene)amino)-N-(5-methylpyridin-3-yl)-2-morpholino-9H-purin-6-amine] |
| 67.79% | Cc1cccc(/C=N/Nc2nc(N3CCOCC3)nc3c2ncn3-c2nccs2)c1 [Example 117, (E)-4-(6-(2-(3-methylbenzylidene)hydrazinyl)-9-(thiazol-2-yl)-9H-purin-2-yl)morpholine] |
| 60.95% | Cc1cccc(/C=N/Nc2nc(N3CCOCC3)nc3c2ncn3C2CN(C(=O)c3cccnc3)C2)c1 [Example 82, (E)-3-(6-(2-(3-methylbenzylidene)hydrazinyl)-2-morpholino-9H-purin-9-yl)azetidin-1-yl (pyridin-3-yl)methanone] |
| 53.14% | Cc1cccc(CNn2cnc3c(Nc4ccncc4)nc(N4CCOCC4)nc32)c1 [Example 203, N^9-(3-methylbenzyl)-2-morpholino-N^6-(pyridin-4-yl)-9H-purin-6,9-diamine] |
| 63.00% | Cc1cccc(/C=N/Nc2nc(N3CCOCC3)nc3nc(-c4cccnc4)ccc23)c1 [Example 216, (E)-4-(4-(2-(3-methylbenzylidene)hydrazinyl)-7-(pyridin-3-yl)pyrido[2,3-d]pyrimidin-2-yl)morpholine] |
| 65.93% | Cc1cccc(/C=N/n2cnc3c(Nc4cc(C)n(C)n4)nc(N4CCOCC4)nc32)c1 [Example 188, (E)-N-(1,5-dimethyl-1H-pyrazol-3-yl)-9-((3-methylbenzylidene)amino)-2-morpholino-9H-purin-6-amine] |
| 87.26% | Cc1ccc(/C=N/n2cnc3c(Nc4ccncc4)nc(N4CCOCC4)nc32)cc1 [Example 168, (E)-9-((4-methylbenzylidene)amino)-2-morpholino-N-(pyridin-4-yl)-9H-purin-6-amine] |
| 52.43% | Cc1cccc(/C=N/n2cnc3c(Nc4ccc(Cl)cc4)nc(N4CCOCC4)nc32)c1 [Example 186, (E)-N-(4-chlorophenyl)-9-((3-methylbenzylidene)amino)-2-morpholino-9H-purin-6-amine] |
| 65.33% | Cc1cccc(/C=N/Nc2nc(N3CCOCC3)nc3c2nc(C)n3CC(=O)c2ccncc2)c1 [Example 159, (E)-2-(8-methyl-6-(2-(3-methylbenzylidene)hydrazinyl)-2-morpholino-9H-purin-9-yl)-1-(pyridin-4-yl)ethan-1-one] |
| 60.82% | Cc1cccc(/C=N/Nc2nc(N3CCOCC3)nc3c2ncn3CC(=O)c2ccc(F)cc2)c1 [Example 47, (E)-1-(4-fluorophenyl)-2-(6-(2-(3-methylbenzylidene)hydrazinyl)-2-morpholino-9H-purin-9-yl)ethan-1-one] |
| 54.37% | Cc1cccc(/C=N/Nc2nc(N3CCOCC3)nc3c2ncn3CC(=O)c2cccc(OC(F)(F)F)c2)c1 [Example 50, (E)-2-(6-(2-(3-methylbenzylidene)hydrazinyl)-2-morpholino-9H-purin-9-yl)-1-(3-(trifluoromethoxy)phenyl)ethan-1-one] |
| 63.93% | Cc1cccc(/C=N/Nc2nc(N3CCOCC3)nc3c2nc(C)n3CC(=O)c2cccnc2)c1 [Example 158, (E)-2-(8-methyl-6-(2-(3-methylbenzylidene)hydrazinyl)-2-morpholino-9H-purin-9-yl)-1-(pyridin-3-yl)ethan-1-one] |
| 55.65% | COc1cccc(Nc2nc(N3CCOCC3)nc3c2ncn3/N=C/c2cccc(C)c2)c1 [Example 184, (E)-N-(3-methoxyphenyl)-9-((3-methylbenzylidene)amino)-2-morpholino-9H-purin-6-amine] |
| 51.47% | Cc1cccc(/C=N/Nc2nc(N3CCOCC3)nc3c(-c4ccccc4)cn(C)c23)c1 [Example 9, (E)-4-(5-methyl-4-(2-(3-methylbenzylidene)hydrazinyl)-7-phenyl-5H-pyrrolo[3,2-d]pyrimidin-2-yl)morpholine] |

Source: US20250388582A1, “NOVEL BICYCLIC HETEROARYL COMPOUND AND USE THEREOF” (ILDONG PHARMACEUTICAL CO., LTD., priority 2022, published 2025)
